pIC50: −log10 of the molar value.
Assays:
[1] = test system: A375 cells; assay: A375 Cell Proliferation Assay (1); assay type: cell-based; settings: Homo sapiens, A-375
Procedure, shortened: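 Resazurin fluorescence (excitation 540 nm, emission 600 nm, after a further 5-6 h) gave IC50s from triplicate compound dilution series.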

[2] = target: C-Raf kinase (SEQ. ID NO: 3) (Homo sapiens (Human), UniProt P04049, Y340D/Y341D); assay: Biochemical Assay for C-Raf (1); settings: Table J, assay version (1); read-out: CRAF (1) IC50
Chain of C-Raf kinase (SEQ. ID NO: 3) (P04049 307-648 Y340D/Y341D): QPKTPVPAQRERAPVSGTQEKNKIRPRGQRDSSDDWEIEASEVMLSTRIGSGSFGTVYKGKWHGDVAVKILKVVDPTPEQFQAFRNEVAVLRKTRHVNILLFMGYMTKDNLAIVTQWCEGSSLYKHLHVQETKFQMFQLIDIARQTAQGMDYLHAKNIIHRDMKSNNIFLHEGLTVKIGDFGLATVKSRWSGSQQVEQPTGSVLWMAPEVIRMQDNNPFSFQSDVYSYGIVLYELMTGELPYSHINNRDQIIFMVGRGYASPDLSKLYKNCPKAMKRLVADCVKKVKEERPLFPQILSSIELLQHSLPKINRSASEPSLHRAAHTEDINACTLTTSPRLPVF
Procedure, shortened: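 Coupled pyruvate kinase/LDH assay tracking NADH oxidation at 340 nm, with 0.43 nM C-Raf, 30.1 nM MEK and 1 mM ATP in pH 7.5 Tris buffer (15 mM MgCl2, 1% DMSO final). Read continuously for 6 h at 30 °C, rate taken from the 4–5 h window. IC50 from four-parameter fit of percent inhibition.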

[3] = target: B-Raf (V600E) (SEQ. ID NO: 4) kinase (Homo sapiens (Human), UniProt P15056, V600E); assay: Biochemical Assay for B-Raf (V600E) (1); settings: Table J, BRAF V600E, assay version (1); read-out: BRAF VE (1) IC50
Chain of B-Raf (V600E) (SEQ. ID NO: 4) kinase (P15056 416-766 V600E): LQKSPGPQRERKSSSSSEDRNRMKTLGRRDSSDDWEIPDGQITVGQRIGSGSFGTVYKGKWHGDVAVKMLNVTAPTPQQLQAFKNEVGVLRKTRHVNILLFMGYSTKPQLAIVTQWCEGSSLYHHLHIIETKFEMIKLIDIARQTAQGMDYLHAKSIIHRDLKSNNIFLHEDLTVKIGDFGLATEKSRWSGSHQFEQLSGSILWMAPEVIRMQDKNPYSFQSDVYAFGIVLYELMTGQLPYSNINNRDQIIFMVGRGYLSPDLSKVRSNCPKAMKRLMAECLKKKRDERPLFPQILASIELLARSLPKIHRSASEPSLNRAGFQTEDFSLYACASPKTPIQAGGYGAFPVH
Procedure, shortened: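 Coupled pyruvate kinase/lactate dehydrogenase assay: 0.03 nM B-Raf V600E, 30.1 nM MEK, 1 mM ATP, pH 7.5 Tris/MgCl2 buffer, 1% DMSO. NADH oxidation followed at 340 nm for 6 h at 30 °C; rate from 3–4 h converted to percent inhibition, IC50 by four-parameter fit.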

[4] = target: B-Raf kinase (SEQ. ID NO: 2) (Homo sapiens (Human), UniProt P15056); assay: Biochemical Assay for B-Raf (1); settings: Table J, assay version (1); read-out: BRAF (1) IC50
Chain of B-Raf kinase (SEQ. ID NO: 2) (P15056 416-766): as the sequence (P15056 416-766 V600E) above, with E185V counted along it
Procedure, shortened: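 Continuous PK/LDH-coupled NADH oxidation assay, A340 read for 6 h at 30° C., with 0.13 nM B-Raf, 30.1 nM MEK substrate and 1 mM ATP in Tris pH 7.5, MgCl2, DTT, detergents, 1% DMSO. Rate taken from 4–5 h window; percent inhibition vs no-compound and known-inhibitor controls; four-parameter fit gives IC50.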

| Compound | pIC50 [1] | pIC50 [2] | pIC50 [3] | pIC50 [4] |
| --- | --- | --- | --- | --- |
| CC(=O)Nc1cc(-c2cc(-c3cc(NC(=O)c4ccnc(C(F)(F)F)c4)ccc3C)cn(C)c2=O)ccn1 [Example 21, N-(3-(2′-acetamido-1-methyl-2-oxo-1,2-dihydro-[3,4′-bipyridin]-5-yl)-4-methylphenyl)-2-(trifluoromethyl)isonicotinamide] | 5.00 to 6.00 | ≥ 7.00 | ≥ 7.00 | ≥ 7.00 |
| Cc1ccc(NC(=O)c2ccnc(C(C)(C)C#N)c2)cc1-c1nccc(-c2ccnc3c2CC(=O)N3)n1 [Example 22] | 5.00 to 6.00 | ≥ 7.00 | ≥ 7.00 | ≥ 7.00 |
| Cc1ccc(NC(=O)c2ccnc(C(C)(C)C#N)c2)cc1-c1ccnc(-c2ccnc3c2CC(=O)N3)c1 [Example 23] | ≥ 7.00 | ≥ 7.00 | ≥ 7.00 | ≥ 7.00 |
| CC(=O)Nc1cc(-c2nccc(-c3cc(NC(=O)c4ccnc(C(F)(F)F)c4)ccc3C)n2)ccn1 [Example 24] | ≥ 7.00 | ≥ 7.00 | ≥ 7.00 | ≥ 7.00 |
| CNC(=O)c1cc(-c2nccc(-c3cc(NC(=O)c4ccnc(C(F)(F)F)c4)ccc3C)n2)ccn1 [Example 25] | 6.00 to 6.30 | ≥ 7.00 | ≥ 7.00 | ≥ 7.00 |
| CC(=O)Nc1cc(-c2cccc(-c3cc(NC(=O)c4ccnc(C(F)(F)F)c4)ccc3C)c2)ccn1 [Example 28] | ≥ 7.00 | ≥ 7.00 | ≥ 7.00 | ≥ 7.00 |
| CC(=O)Nc1cc(-c2cccc(-c3cc(NC(=O)c4ccnc(C(F)(F)F)c4)ccc3C)c2)ncn1 [Example 30] | ≥ 7.00 | ≥ 7.00 | ≥ 7.00 | ≥ 7.00 |
| CNC(=O)c1cc(-c2cc(-c3cc(C(=O)Nc4ccnc(C(F)(F)F)c4)ccc3C)ccn2)ccn1 [Example 31] | 5.00 to 6.00 | ≥ 7.00 | ≥ 7.00 | 6.30 to 7.00 |
| COC(=O)Nc1cc(-c2cccc(-c3cc(NC(=O)c4ccnc(C5CC5)c4)cnc3C)c2)ccn1 [Example 288] | 5.00 to 6.00 | ≥ 7.00 | ≥ 7.00 | ≥ 7.00 |
| COC(=O)Nc1nccc(-c2cccc(-c3cc(NC(=O)c4ccnc(C(C)(C)C#N)c4)cnc3C)c2)n1 [Example 290] | 5.00 to 6.00 | 6.30 to 7.00 | ≥ 7.00 | 6.00 to 6.30 |
| Cc1ncc(NC(=O)c2cnnc(C3CC3)c2)cc1-c1nccc(-c2ccnc(NC(=O)C3CC3)c2)n1 [Example 294] | 5.00 to 6.00 | ≥ 7.00 | ≥ 7.00 | ≥ 7.00 |
| Cc1ncc(NC(=O)c2ccnc(C3CC3)c2)cc1-c1nccc(-c2ccnc(NC(=O)C3CC3)c2)n1 [Example 295] | 6.00 to 6.30 | ≥ 7.00 | ≥ 7.00 | ≥ 7.00 |
| Cc1cc(F)c(NC(=O)c2ccnc(C(C)(C)C#N)c2)cc1-c1cc(-c2ccnc(NC(=O)C3CC3)c2)cnn1 [Example 298] | 6.30 to 7.00 | ≥ 7.00 | ≥ 7.00 | ≥ 7.00 |
| COC(=O)Nc1cc(-c2cnnc(-c3cc(NC(=O)c4ccnc(C(C)(C)C#N)c4)c(F)cc3C)c2)ccn1 [Example 299] | 6.30 to 7.00 | ≥ 7.00 | ≥ 7.00 | ≥ 7.00 |
| Cc1cc(F)c(NC(=O)c2ccnc(C(C)(C)F)c2)cc1-c1ccnc(-c2ccnc(NC(=O)C3CC3)c2)c1 [Example 300] | ≥ 7.00 | ≥ 7.00 | ≥ 7.00 | ≥ 7.00 |
| COC(=O)Nc1cc(-c2cc(-c3cc(NC(=O)c4ccnc(C(C)(C)F)c4)c(F)cc3C)ccn2)ccn1 [Example 302] | ≥ 7.00 | ≥ 7.00 | ≥ 7.00 | ≥ 7.00 |
| COC(=O)Nc1cc(-c2cnnc(-c3cc(NC(=O)c4ccnc(C(C)(C)C#N)c4)ccc3C)c2)ccn1 [Example 305] | 6.30 to 7.00 | ≥ 7.00 | ≥ 7.00 | ≥ 7.00 |

More lines, now with the values ahead:

| pIC50 [1] | pIC50 [2] | pIC50 [3] | pIC50 [4] | Compound |
| --- | --- | --- | --- | --- |
| 6.30 to 7.00 | ≥ 7.00 | ≥ 7.00 | ≥ 7.00 | CC(=O)Nc1cc(-c2cc(-c3cc(C(=O)Nc4ccnc(C(F)(F)F)c4)ccc3C)ccn2)ccn1 [Example 26] |
| ≥ 7.00 | 6.30 to 7.00 | ≥ 7.00 | 6.30 to 7.00 | CNC(=O)c1cc(-c2cc(-c3cc(NC(=O)c4ccnc(C(F)(F)F)c4)ccc3C)cc(C3CC3)n2)ccn1 [Example 27] |
| 6.30 to 7.00 | ≥ 7.00 | ≥ 7.00 | ≥ 7.00 | CC(=O)Nc1cc(-c2cncc(-c3cc(NC(=O)c4ccnc(C(F)(F)F)c4)ccc3C)n2)ccn1 [Example 29] |
| 6.30 to 7.00 | ≥ 7.00 | ≥ 7.00 | ≥ 7.00 | Cc1ncc(NC(=O)c2cncc(C(F)F)c2)cc1-c1cccc(-c2cc(NC(=O)C3CC3)ncn2)c1 [Example 280] |
| 5.00 to 6.00 | ≥ 7.00 | ≥ 7.00 | ≥ 7.00 | Cc1ncc(NC(=O)c2cn(C(C)C)nn2)cc1-c1ccnc(-c2ccnc(NC(=O)C3CC3)c2)n1 [Example 281] |
| ≥ 7.00 | ≥ 7.00 | ≥ 7.00 | ≥ 7.00 | COC(=O)Nc1cc(-c2cccc(-c3cc(NC(=O)c4ccnc(C(C)(C)C#N)c4)cnc3C)c2)ccn1 [Example 282] |
| 6.30 to 7.00 | ≥ 7.00 | ≥ 7.00 | ≥ 7.00 | Cc1ncc(NC(=O)c2cnn(C(C)(C)C)c2)cc1-c1ccnc(-c2ccnc(NC(=O)C3CC3)c2)n1 [Example 283] |
| ≥ 7.00 | ≥ 7.00 | ≥ 7.00 | ≥ 7.00 | Cc1ccc(NC(=O)c2cnnc(C3CC3)c2)cc1-c1cccc(-c2cc(NC(=O)C3CC3)ncn2)c1 [Example 284] |
| 5.00 to 6.00 | ≥ 7.00 | ≥ 7.00 | ≥ 7.00 | Cc1ncc(NC(=O)c2cn(C(C)C)nn2)cc1-c1nccc(-c2ccnc(NC(=O)C3CC3)c2)n1 [Example 285] |
| 6.00 to 6.30 | ≥ 7.00 | ≥ 7.00 | ≥ 7.00 | Cc1nc(-c2ccnc(NC(=O)C3CC3)c2)cc(-c2cc(NC(=O)c3ccnc(C4(C#N)CC4)c3)cnc2C)n1 [Example 286] |
| 5.00 to 6.00 | ≥ 7.00 | ≥ 7.00 | ≥ 7.00 | Cc1nc(-c2ccnc(NC(=O)C3CC3)c2)cc(-c2cc(NC(=O)c3ccnc(C4CC4)c3)cnc2C)n1 [Example 287] |
| 6.30 to 7.00 | ≥ 7.00 | ≥ 7.00 | ≥ 7.00 | Cc1ncc(NC(=O)c2ccnc(C3CC3)c2)cc1-c1cccc(-c2cc(NC(=O)C3CC3)ncn2)c1 [Example 291] |
| ≥ 7.00 | ≥ 7.00 | ≥ 7.00 | ≥ 7.00 | COC(=O)Nc1cc(-c2cc(-c3cc(NC(=O)c4ccnc(C(C)(C)C#N)c4)cnc3C)ccn2)ccn1 [Example 297] |
| 6.30 to 7.00 | ≥ 7.00 | ≥ 7.00 | ≥ 7.00 | Cc1ncc(NC(=O)c2ccnc(C(C)(C)C#N)c2)cc1-c1cccc(-c2ccnc(C(N)=O)c2)c1 [Example 301] |
| ≥ 7.00 | ≥ 7.00 | ≥ 7.00 | ≥ 7.00 | COC(=O)Nc1cc(-c2nccc(-c3cc(NC(=O)c4ccnc(C(C)(C)C#N)c4)c(F)cc3C)n2)ccn1 [Example 303] |
| 6.30 to 7.00 | ≥ 7.00 | ≥ 7.00 | ≥ 7.00 | COC(=O)Nc1cc(-c2nccc(-c3cc(NC(=O)c4ccnc(C(C)(C)F)c4)c(F)cc3C)n2)ccn1 [Example 304] |
